Assay results: the supplement of paper PMC10307832

Tests used:
Assay in all cases: relative viability (nuclei count vs DMSO), 5 days (fraction); higher = more cells survive
Mirin + Linsitinib = compound: N=C1NC(=O)/C(=C/c2ccc(O)cc2)S1 [Mirin] + C[C@]1(O)C[C@@H](c2nc(-c3ccc4ccc(-c5ccccc5)nc4c3)c3c(N)nccn32)C1 [Linsitinib] (partner 1 µM)
In short: (§1)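 Lung cancer cell lines were seeded in 1536-well plates and dosed by pin tool the next day, with either a single drug or a fixed anchor-drug dose combined with five library-drug doses (not always all listed) spaced in √10 steps. Five days later, one step fixed the cells and stained their nuclei (final 0.05% Triton X-100, 1% formaldehyde, 1 ug/ml Hoechst), and nuclei were counted on 4× images. Relative viability is the nuclei count in treated wells divided by the count in vehicle wells, and each value is the median of duplicate plates.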

[1] = compound: CCC1=CN=CN=C1N2CCN(CC2)CC3=NC4=C(N3)C=C(C=C4)C(F)(F)F + CC1(C)CCC(c2ccc(Cl)cc2)=C(CN2CCN(c3ccc(C(=O)NS(=O)(=O)c4ccc(N[C@H](CCN5CCOCC5)CSc5ccccc5)c(S(=O)(=O)C(F)(F)F)c4)cc3)CC2)C1 [Navitoclax] (partner 0.5 µM)
In short: as §1

[2] = compound: CCn1c(-c2nonc2N)nc2cnc(Oc3cccc(NC(=O)c4ccc(OCCN5CCOCC5)cc4)c3)cc21 + COc1cccc2cc(-c3nc([C@H]4CC[C@H](C(=O)O)CC4)n4ncnc(N)c34)[nH]c12 [OSI-027] (partner 0.5 µM)
In short: as §1

Mirin + Trametinib = compound: N=C1NC(=O)/C(=C/c2ccc(O)cc2)S1 [Mirin] + CC(=O)Nc1cccc(-n2c(=O)n(C3CC3)c(=O)c3c(Nc4ccc(I)cc4F)n(C)c(=O)c(C)c32)c1 [Trametinib] (partner 0.02 µM)
In short: as §1

| Cell Line | relative viability (Mirin + Linsitinib; first compound 0.25 µM) | relative viability (Mirin + Linsitinib; first compound 0.7906 µM) | relative viability (Mirin + Linsitinib; first compound 2.5 µM) | relative viability (Mirin + Linsitinib; first compound 7.906 µM) | relative viability (Mirin + Linsitinib; first compound 25 µM) | relative viability ([1]; first compound 0.04 µM) | relative viability ([1]; first compound 0.1265 µM) | relative viability ([1]; first compound 0.4 µM) | relative viability ([1]; first compound 1.265 µM) | relative viability ([1]; first compound 4 µM) | relative viability ([2]; first compound 0.04 µM) | relative viability ([2]; first compound 0.1265 µM) | relative viability ([2]; first compound 0.4 µM) | relative viability ([2]; first compound 1.265 µM) | relative viability ([2]; first compound 4 µM) | relative viability (Mirin + Trametinib; first compound 0.25 µM) | relative viability (Mirin + Trametinib; first compound 0.7906 µM) | relative viability (Mirin + Trametinib; first compound 2.5 µM) | relative viability (Mirin + Trametinib; first compound 7.906 µM) | relative viability (Mirin + Trametinib; first compound 25 µM) |
| --- | --- | --- | --- | --- | --- | --- | --- | --- | --- | --- | --- | --- | --- | --- | --- | --- | --- | --- | --- | --- |
| EBC-1 | 1.06 | 1.07 | 0.872 | 0.875 | 0.974 | 0.422 | 0.49 | 0.396 | 0.415 | 0.434 | – | – | – | – | – | – | – | – | – | – |
| ABC-1 | 0.771 | 0.93 | 0.773 | 1.04 | 0.455 | – | – | – | – | – | 0.492 | 0.751 | 0.272 | 0.418 | 0.3 | – | – | – | – | – |
| NCI-H1650 | – | – | – | – | – | 1.26 | 1.08 | 1.22 | 1.02 | 1.4 | 0.666 | 0.678 | 0.551 | 0.535 | 0.656 | 0.534 | 0.544 | 0.579 | 0.551 | 0.62 |
| NCI-H1563 | 1.16 | 1.32 | 1.19 | 1.18 | 1.19 | – | – | – | – | – | 0.697 | 0.705 | 0.576 | 0.724 | 0.644 | – | – | – | – | – |
| NCI-H1648 | – | – | – | – | – | – | – | – | – | – | 0.258 | 0.393 | 0.276 | 0.314 | 0.327 | 0.448 | – | 0.41 | 0.457 | 0.389 |
| NCI-H1299 | 0.984 | 0.966 | 0.978 | 0.879 | 1.2 | 1.09 | 1.03 | 1.03 | 1.05 | 1.04 | – | – | – | – | – | – | – | – | – | – |
| A549 | 0.508 | 0.58 | 0.544 | 0.503 | 0.511 | 1.14 | 1.13 | 1.12 | 1.16 | 0.945 | – | – | – | – | – | – | – | – | – | – |
| NCI-H1623 | – | – | – | – | – | – | – | – | – | – | 0.513 | 0.488 | 0.351 | 0.43 | 0.542 | – | – | – | – | – |
| NCI-H1703 | 0.797 | 0.353 | 0.967 | – | 0.916 | 0.901 | 1.13 | 1.1 | 0.85 | 1.08 | – | – | – | – | – | – | – | – | – | – |
| NCI-H2170 | – | – | – | – | – | 0.561 | 0.69 | 0.534 | 0.608 | 0.608 | 0.708 | 0.703 | 0.641 | 0.555 | 0.555 | 0.981 | 0.875 | 0.976 | 0.915 | 0.859 |
| NCI-H522 | – | – | – | – | – | – | – | – | – | – | 0.742 | 0.818 | 0.642 | 0.55 | 0.587 | 0.682 | 0.741 | 0.872 | 0.768 | 0.519 |
| Calu-6 | 0.914 | 0.908 | 0.903 | 0.856 | 0.88 | 0.818 | 0.779 | 0.721 | 0.713 | 0.717 | – | – | – | – | – | – | – | – | – | – |
| ChaGo-K-1 | – | – | – | – | – | – | 1 | 0.927 | 0.936 | 0.942 | 0.679 | 0.521 | 0.313 | 0.393 | 0.307 | 0.833 | 0.836 | 0.94 | 0.756 | 0.677 |
| LCLC-103H | 1.12 | 1.11 | 1.08 | 1.22 | 1.13 | – | – | – | – | – | 0.522 | 0.448 | 0.231 | 0.312 | 0.323 | 0.744 | 0.799 | 0.735 | 0.735 | 0.833 |
